Paper PMC7553946, “Soticlestat, a novel cholesterol 24-hydroxylase inhibitor shows a therapeutic potential for neural hyperexcitation in mice” (Scientific Reports, 2020)

Key:
Dopamine D2L = target: T1, Dopamine D2L (Homo sapiens, UniProt P14416); test: biochemical; parameters: radioligand displacement binding panel of CNS receptors and transporters, single concentration; conditions: read-out: Inhibition (%)
T1 construct: gene DRD2; long isoform
Excerpt: (§1) Soticlestat (Supplementary Fig. S1) was discovered as a result of an iterative medicinal chemistry effort following high-throughput screening of an in vitro enzyme assay (Fig. 1A,B).

GABA B1B = target: T2, GABA B1B (Homo sapiens, UniProt Q9UBS5); test: biochemical; parameters: radioligand displacement binding panel of CNS receptors and transporters, single concentration; conditions: read-out: Inhibition (%)
T2 construct: gene GABBR1; isoform 1B
Excerpt: as §1

Serotonin transporter = target: T3, Serotonin transporter (Homo sapiens, UniProt P31645); test: biochemical; parameters: radioligand displacement binding panel of CNS receptors and transporters, single concentration; conditions: read-out: Inhibition (%)
T3 construct: gene SLC6A4
Excerpt: as §1

Muscarinic M1 = target: T4, Muscarinic M1 (Homo sapiens, UniProt P11229); test: biochemical; parameters: radioligand displacement binding panel of CNS receptors and transporters, single concentration; conditions: read-out: Inhibition (%)
T4 construct: gene CHRM1
Excerpt: as §1

Dopamine D3 = target: T5, Dopamine D3 (Homo sapiens, UniProt P35462); test: biochemical; parameters: radioligand displacement binding panel of CNS receptors and transporters, single concentration; conditions: read-out: Inhibition (%)
T5 construct: gene DRD3
Excerpt: as §1

Bradykinin B1 = target: T6, Bradykinin B1 (Homo sapiens, UniProt P46663); test: biochemical; parameters: radioligand displacement binding panel of CNS receptors and transporters, single concentration; conditions: read-out: Inhibition (%)
T6 construct: gene BDKRB1
Excerpt: as §1

5-HT2B = target: T7, 5-HT2B (Homo sapiens, UniProt P41595); test: biochemical; parameters: radioligand displacement binding panel of CNS receptors and transporters, single concentration; conditions: read-out: Inhibition (%)
T7 construct: gene HTR2B
Excerpt: as §1

GABA B1A = target: T8, GABA B1A (Homo sapiens, UniProt Q9UBS5); test: biochemical; parameters: radioligand displacement binding panel of CNS receptors and transporters, single concentration; conditions: read-out: Inhibition (%)
T8 construct: gene GABBR1; isoform 1A
Excerpt: as §1

Adenosine A2B = target: T9, Adenosine A2B (Homo sapiens, UniProt P29275); test: biochemical; parameters: radioligand displacement binding panel of CNS receptors and transporters, single concentration; conditions: read-out: Inhibition (%)
T9 construct: gene ADORA2B
Excerpt: as §1

Muscarinic M2 = target: T10, Muscarinic M2 (Homo sapiens, UniProt P08172); test: biochemical; parameters: radioligand displacement binding panel of CNS receptors and transporters, single concentration; conditions: read-out: Inhibition (%)
T10 construct: gene CHRM2
Excerpt: as §1

Dopamine D4.2 = target: T11, Dopamine D4.2 (Homo sapiens, UniProt P21917); test: biochemical; parameters: radioligand displacement binding panel of CNS receptors and transporters, single concentration; conditions: read-out: Inhibition (%)
T11 construct: gene DRD4; D4.2 repeat variant
Excerpt: as §1

Angiotensin AT2 = target: T12, Angiotensin AT2 (Homo sapiens, UniProt P50052); test: biochemical; parameters: radioligand displacement binding panel of CNS receptors and transporters, single concentration; conditions: read-out: Inhibition (%)
T12 construct: gene AGTR2
Excerpt: as §1

Dopamine transporter = target: T13, Dopamine transporter (Homo sapiens, UniProt Q01959); test: biochemical; parameters: radioligand displacement binding panel of CNS receptors and transporters, single concentration; conditions: read-out: Inhibition (%)
T13 construct: gene SLC6A3
Excerpt: as §1

Opiate μ (OP3, MOP) = target: T14, Opiate μ (OP3, MOP) (Homo sapiens, UniProt P35372); test: biochemical; parameters: radioligand displacement binding panel of CNS receptors and transporters, single concentration; conditions: read-out: Inhibition (%)
T14 construct: gene OPRM1
Excerpt: as §1

Adrenergic β2 = target: T15, Adrenergic β2 (Homo sapiens, UniProt P07550); test: biochemical; parameters: radioligand displacement binding panel of CNS receptors and transporters, single concentration; conditions: read-out: Inhibition (%)
T15 construct: gene ADRB2
Excerpt: as §1

Opiate κ (OP2, KOP) = target: T16, Opiate κ (OP2, KOP) (Homo sapiens, UniProt P41145); test: biochemical; parameters: radioligand displacement binding panel of CNS receptors and transporters, single concentration; conditions: read-out: Inhibition (%)
T16 construct: gene OPRK1
Excerpt: as §1

Histamine H1 = target: T17, Histamine H1 (Homo sapiens, UniProt P35367); test: biochemical; parameters: radioligand displacement binding panel of CNS receptors and transporters, single concentration; conditions: read-out: Inhibition (%)
T17 construct: gene HRH1
Excerpt: as §1

Adrenergic β3 = target: T18, Adrenergic β3 (Homo sapiens, UniProt P13945); test: biochemical; parameters: radioligand displacement binding panel of CNS receptors and transporters, single concentration; conditions: read-out: Inhibition (%)
T18 construct: gene ADRB3
Excerpt: as §1

[1] = target: T19, Norepinephrine transporter (Homo sapiens, UniProt P23975); test: biochemical; parameters: radioligand displacement binding panel of CNS receptors and transporters, single concentration; conditions: read-out: Inhibition (%)
T19 construct: gene SLC6A2
Excerpt: as §1

Adrenergic β1 = target: T20, Adrenergic β1 (Homo sapiens, UniProt P08588); test: biochemical; parameters: radioligand displacement binding panel of CNS receptors and transporters, single concentration; conditions: read-out: Inhibition (%)
T20 construct: gene ADRB1
Excerpt: as §1

Cannabinoid CB1 = target: T21, Cannabinoid CB1 (Homo sapiens, UniProt P21554); test: biochemical; parameters: radioligand displacement binding panel of CNS receptors and transporters, single concentration; conditions: read-out: Inhibition (%)
T21 construct: gene CNR1
Excerpt: as §1

Histamine H2 = target: T22, Histamine H2 (Homo sapiens, UniProt P25021); test: biochemical; parameters: radioligand displacement binding panel of CNS receptors and transporters, single concentration; conditions: read-out: Inhibition (%)
T22 construct: gene HRH2
Excerpt: as §1

Dopamine D1 = target: T23, Dopamine D1 (Homo sapiens, UniProt P21728); test: biochemical; parameters: radioligand displacement binding panel of CNS receptors and transporters, single concentration; conditions: read-out: Inhibition (%)
T23 construct: gene DRD1
Excerpt: as §1

Muscarinic M3 = target: T24, Muscarinic M3 (Homo sapiens, UniProt P20309); test: biochemical; parameters: radioligand displacement binding panel of CNS receptors and transporters, single concentration; conditions: read-out: Inhibition (%)
T24 construct: gene CHRM3
Excerpt: as §1

Vasopressin V1A = target: T25, Vasopressin V1A (Homo sapiens, UniProt P37288); test: biochemical; parameters: radioligand displacement binding panel of CNS receptors and transporters, single concentration; conditions: read-out: Inhibition (%)
T25 construct: gene AVPR1A
Excerpt: as §1

[2] = target: cholesterol 24-hydroxylase (CH24H, CYP46A1) (Homo sapiens, UniProt Q9Y6A2); test: […]cholesterol 24-hydroxylation assay by TLC with lysate of CH24H-expressing cells; type: biochemical
MAO A = target: T26, MAO A (Homo sapiens, UniProt P21397); test: biochemical; parameters: enzyme inhibition panel, single concentration; conditions: read-out: Inhibition (%)
T26 construct: gene MAOA
Excerpt: as §1

MAO B = target: T27, MAO B (Homo sapiens, UniProt P27338); test: biochemical; parameters: enzyme inhibition panel, single concentration; conditions: read-out: Inhibition (%)
T27 construct: gene MAOB
Excerpt: as §1

[3] = target: T28, Cholinesterase, Acetyl, ACES (Homo sapiens, UniProt P22303); test: biochemical; parameters: enzyme inhibition panel, single concentration; conditions: read-out: Inhibition (%)
T28 construct: gene ACHE
Excerpt: as §1

Cyclooxygenase (COX-2) = target: T29, Cyclooxygenase (COX-2) (Homo sapiens, UniProt P35354); test: biochemical; parameters: enzyme inhibition panel, single concentration; conditions: read-out: Inhibition (%)
T29 construct: gene PTGS2
Excerpt: as §1

[4] = target: T30, Peptidase, Metalloproteinase, Neutral Endopeptidase (Homo sapiens, UniProt P08473); test: biochemical; parameters: enzyme inhibition panel, single concentration; conditions: read-out: Inhibition (%)
T30 construct: gene MME
Excerpt: as §1

Cyclooxygenase (COX-1) = target: T31, Cyclooxygenase (COX-1) (Homo sapiens, UniProt P23219); test: biochemical; parameters: enzyme inhibition panel, single concentration; conditions: read-out: Inhibition (%)
T31 construct: gene PTGS1
Excerpt: as §1

Phosphodiesterase 5 = target: T32, Phosphodiesterase 5 (Homo sapiens, UniProt O76074); test: biochemical; parameters: enzyme inhibition panel, single concentration; conditions: read-out: Inhibition (%)
T32 construct: gene PDE5A
Excerpt: as §1

T4 sequence (P11229 whole entry): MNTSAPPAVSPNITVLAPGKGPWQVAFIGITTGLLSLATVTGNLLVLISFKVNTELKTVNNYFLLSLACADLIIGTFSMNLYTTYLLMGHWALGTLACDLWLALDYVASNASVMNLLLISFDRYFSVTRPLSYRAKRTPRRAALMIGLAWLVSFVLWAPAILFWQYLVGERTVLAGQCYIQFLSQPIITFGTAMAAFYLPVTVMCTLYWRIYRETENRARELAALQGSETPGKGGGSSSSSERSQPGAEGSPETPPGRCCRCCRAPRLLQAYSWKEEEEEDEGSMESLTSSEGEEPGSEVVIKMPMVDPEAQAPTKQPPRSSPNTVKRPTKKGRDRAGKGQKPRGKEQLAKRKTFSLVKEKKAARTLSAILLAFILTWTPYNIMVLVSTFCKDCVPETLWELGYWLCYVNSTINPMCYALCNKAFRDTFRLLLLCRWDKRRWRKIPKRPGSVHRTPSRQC
T1 sequence (P14416 whole entry, canonical isoform): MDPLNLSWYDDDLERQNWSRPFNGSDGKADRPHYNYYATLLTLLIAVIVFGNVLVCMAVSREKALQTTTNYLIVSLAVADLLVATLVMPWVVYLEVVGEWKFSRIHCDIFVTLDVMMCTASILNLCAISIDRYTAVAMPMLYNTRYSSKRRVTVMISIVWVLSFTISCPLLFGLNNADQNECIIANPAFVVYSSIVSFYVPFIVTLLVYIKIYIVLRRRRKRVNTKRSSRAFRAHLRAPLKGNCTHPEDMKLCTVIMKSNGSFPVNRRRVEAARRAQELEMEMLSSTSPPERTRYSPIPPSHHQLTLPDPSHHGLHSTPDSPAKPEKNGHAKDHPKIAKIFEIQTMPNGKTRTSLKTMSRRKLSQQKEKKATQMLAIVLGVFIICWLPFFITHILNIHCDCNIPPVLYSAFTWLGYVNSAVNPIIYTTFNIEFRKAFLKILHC
T19 sequence (P23975 whole entry): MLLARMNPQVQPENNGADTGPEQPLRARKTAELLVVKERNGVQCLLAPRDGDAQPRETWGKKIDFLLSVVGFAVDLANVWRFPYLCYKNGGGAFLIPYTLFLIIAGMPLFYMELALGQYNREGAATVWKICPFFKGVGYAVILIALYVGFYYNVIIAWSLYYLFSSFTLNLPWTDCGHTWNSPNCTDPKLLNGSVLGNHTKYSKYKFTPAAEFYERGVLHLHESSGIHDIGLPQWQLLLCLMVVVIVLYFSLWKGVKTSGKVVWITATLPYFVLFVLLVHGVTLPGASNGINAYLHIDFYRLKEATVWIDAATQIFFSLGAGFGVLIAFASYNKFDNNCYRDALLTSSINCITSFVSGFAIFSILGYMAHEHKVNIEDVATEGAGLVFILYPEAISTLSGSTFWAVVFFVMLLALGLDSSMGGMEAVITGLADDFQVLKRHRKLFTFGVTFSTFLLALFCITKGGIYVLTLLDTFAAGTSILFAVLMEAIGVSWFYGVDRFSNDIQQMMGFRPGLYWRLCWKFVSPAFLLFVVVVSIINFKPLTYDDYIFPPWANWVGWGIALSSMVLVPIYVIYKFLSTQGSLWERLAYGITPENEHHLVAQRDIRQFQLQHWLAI
T5 sequence (P35462 whole entry): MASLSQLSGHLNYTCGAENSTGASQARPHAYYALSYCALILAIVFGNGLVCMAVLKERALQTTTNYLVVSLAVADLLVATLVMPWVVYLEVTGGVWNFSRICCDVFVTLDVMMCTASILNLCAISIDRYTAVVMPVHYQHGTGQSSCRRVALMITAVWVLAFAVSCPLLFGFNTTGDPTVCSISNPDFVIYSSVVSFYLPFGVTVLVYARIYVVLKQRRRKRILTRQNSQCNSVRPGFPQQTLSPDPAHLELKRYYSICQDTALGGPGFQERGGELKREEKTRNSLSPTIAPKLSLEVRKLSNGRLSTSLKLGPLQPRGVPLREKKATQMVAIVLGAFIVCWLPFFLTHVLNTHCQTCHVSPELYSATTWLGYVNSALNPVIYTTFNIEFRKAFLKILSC
T12 sequence (P50052 whole entry): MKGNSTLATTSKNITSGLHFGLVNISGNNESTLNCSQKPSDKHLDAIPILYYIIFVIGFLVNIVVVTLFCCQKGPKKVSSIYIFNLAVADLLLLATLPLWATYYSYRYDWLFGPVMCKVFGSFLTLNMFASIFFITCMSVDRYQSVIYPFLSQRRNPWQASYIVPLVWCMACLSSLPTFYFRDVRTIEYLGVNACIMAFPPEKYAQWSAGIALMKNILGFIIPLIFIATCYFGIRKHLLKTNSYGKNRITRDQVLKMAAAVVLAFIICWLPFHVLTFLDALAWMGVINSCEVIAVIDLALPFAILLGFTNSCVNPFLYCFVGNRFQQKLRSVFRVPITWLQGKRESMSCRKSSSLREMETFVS
T20 sequence (P08588 whole entry): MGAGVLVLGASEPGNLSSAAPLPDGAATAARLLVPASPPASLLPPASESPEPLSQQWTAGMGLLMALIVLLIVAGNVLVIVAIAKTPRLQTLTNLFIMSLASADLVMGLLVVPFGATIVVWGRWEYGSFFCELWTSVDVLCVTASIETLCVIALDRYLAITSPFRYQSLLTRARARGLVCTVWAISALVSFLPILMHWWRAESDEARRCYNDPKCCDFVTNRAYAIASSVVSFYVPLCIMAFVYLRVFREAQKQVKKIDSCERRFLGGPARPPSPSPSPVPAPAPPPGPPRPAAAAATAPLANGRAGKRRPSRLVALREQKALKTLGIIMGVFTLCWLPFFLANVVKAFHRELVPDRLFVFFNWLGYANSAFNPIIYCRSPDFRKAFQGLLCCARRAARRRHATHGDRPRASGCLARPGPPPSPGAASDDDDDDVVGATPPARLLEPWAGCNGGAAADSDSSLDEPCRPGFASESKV
T30 sequence (P08473 whole entry): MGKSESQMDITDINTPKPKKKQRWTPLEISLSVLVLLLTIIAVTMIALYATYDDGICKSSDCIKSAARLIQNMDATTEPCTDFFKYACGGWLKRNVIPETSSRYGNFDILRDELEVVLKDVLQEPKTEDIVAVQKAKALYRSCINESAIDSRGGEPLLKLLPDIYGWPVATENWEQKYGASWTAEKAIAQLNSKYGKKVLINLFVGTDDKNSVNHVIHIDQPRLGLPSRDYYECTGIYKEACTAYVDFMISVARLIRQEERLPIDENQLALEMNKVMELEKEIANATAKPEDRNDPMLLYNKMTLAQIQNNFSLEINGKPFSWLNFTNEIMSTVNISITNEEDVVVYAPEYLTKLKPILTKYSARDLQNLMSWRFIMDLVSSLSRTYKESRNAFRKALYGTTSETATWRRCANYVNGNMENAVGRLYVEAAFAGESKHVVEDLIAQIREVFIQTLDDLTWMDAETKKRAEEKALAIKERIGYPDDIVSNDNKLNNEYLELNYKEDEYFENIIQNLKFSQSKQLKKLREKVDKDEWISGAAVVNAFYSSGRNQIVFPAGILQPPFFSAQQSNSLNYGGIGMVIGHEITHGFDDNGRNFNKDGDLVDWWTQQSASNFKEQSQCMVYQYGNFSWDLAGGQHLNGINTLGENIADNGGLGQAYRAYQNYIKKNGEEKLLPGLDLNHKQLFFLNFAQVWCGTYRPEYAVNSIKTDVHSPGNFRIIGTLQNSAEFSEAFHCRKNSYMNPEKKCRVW
T3 sequence (P31645 whole entry): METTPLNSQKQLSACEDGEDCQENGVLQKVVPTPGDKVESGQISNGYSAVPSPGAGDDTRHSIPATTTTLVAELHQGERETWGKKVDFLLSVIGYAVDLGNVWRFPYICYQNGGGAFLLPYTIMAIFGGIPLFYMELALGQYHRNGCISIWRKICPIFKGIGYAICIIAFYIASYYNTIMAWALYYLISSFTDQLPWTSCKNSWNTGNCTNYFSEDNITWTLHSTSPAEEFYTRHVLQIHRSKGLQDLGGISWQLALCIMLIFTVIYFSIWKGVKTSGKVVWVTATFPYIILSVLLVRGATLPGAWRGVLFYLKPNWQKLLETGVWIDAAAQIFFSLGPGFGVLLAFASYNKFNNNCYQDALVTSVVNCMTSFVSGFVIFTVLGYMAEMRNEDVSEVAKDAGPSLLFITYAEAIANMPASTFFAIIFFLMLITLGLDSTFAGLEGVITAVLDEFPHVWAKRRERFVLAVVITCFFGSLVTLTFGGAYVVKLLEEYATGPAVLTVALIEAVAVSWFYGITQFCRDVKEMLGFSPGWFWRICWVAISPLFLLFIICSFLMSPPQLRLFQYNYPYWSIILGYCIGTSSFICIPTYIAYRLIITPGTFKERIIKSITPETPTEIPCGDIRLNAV
T11 sequence (P21917 whole entry): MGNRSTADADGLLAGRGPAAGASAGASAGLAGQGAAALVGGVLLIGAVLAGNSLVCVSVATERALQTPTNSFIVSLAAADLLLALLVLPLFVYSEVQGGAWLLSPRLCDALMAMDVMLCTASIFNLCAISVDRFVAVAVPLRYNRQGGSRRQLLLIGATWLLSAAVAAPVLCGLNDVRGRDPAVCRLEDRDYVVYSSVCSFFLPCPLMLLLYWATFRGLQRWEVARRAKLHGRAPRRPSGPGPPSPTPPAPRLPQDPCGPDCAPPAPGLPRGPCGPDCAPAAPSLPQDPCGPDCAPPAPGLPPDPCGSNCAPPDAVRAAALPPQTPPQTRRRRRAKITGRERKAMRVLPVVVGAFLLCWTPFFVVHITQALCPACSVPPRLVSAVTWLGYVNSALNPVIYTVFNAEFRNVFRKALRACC
T16 sequence (P41145 whole entry): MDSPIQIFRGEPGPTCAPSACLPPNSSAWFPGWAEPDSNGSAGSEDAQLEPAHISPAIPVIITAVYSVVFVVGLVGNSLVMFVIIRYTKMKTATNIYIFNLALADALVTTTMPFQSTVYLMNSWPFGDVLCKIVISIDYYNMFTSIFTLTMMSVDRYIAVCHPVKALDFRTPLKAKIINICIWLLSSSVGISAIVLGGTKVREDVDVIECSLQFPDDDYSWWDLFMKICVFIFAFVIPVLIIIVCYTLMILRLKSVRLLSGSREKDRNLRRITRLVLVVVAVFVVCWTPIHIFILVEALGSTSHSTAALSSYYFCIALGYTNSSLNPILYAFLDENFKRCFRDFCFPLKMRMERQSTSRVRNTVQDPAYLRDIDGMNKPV

## O=C(c1cccnc1-c1ccncc1)N1CCC(O)(Cc2ccccc2)CC1 [soticlestat, (4-benzyl-4-hydroxypiperidin-1-yl)(2,4′-bipyridin-3-yl) methanone]
Dopamine D2L
  inhibition at 10 µM: 15%
GABA B1B
  inhibition at 10 µM: 8%
Serotonin transporter
  inhibition at 10 µM: 6%
Muscarinic M1
  inhibition at 10 µM: 7%
Dopamine D3
  inhibition at 10 µM: 5%
Bradykinin B1
  inhibition at 10 µM: 13%
5-HT2B
  inhibition at 10 µM: 5%
GABA B1A
  inhibition at 10 µM: 6%
Adenosine A2B
  inhibition at 10 µM: 20%
Muscarinic M2
  inhibition at 10 µM: 1%
Dopamine D4.2
  inhibition at 10 µM: 0%
Angiotensin AT2
  inhibition at 10 µM: -10%
Dopamine transporter
  inhibition at 10 µM: 0%
Opiate μ (OP3, MOP)
  inhibition at 10 µM: -1%
Adrenergic β2
  inhibition at 10 µM: 6%
Opiate κ (OP2, KOP)
  inhibition at 10 µM: -1%
Histamine H1
  inhibition at 10 µM: -2%
Adrenergic β3
  inhibition at 10 µM: -7%
[1]
  inhibition at 10 µM: -1%
Adrenergic β1
  inhibition at 10 µM: -4%
Cannabinoid CB1
  inhibition at 10 µM: -5%
Histamine H2
  inhibition at 10 µM: 5%
Dopamine D1
  inhibition at 10 µM: 5%
Muscarinic M3
  inhibition at 10 µM: 12%
Vasopressin V1A
  inhibition at 10 µM: -11%
[2]
  IC50: 4.5 nM
MAO A
  inhibition at 10 µM: 1%
MAO B
  inhibition at 10 µM: 0%
[3]
  inhibition at 10 µM: 0%
Cyclooxygenase (COX-2)
  inhibition at 10 µM: 4%
[4]
  inhibition at 10 µM: -4%
Cyclooxygenase (COX-1)
  inhibition at 10 µM: -14%
Phosphodiesterase 5
  inhibition at 10 µM: -2%
